In data set [1] the target is T1, P2Y12 receptor on platelets (Homo sapiens, UniProt Q9H244).
T1 construct: endogenous in cells; host or cells: whole apyrase-washed human platelets (outdated from hospital blood banks, or fresh)
Kind of data set: platelet ADP receptor binding assay (ARB), inhibition of [3H]2-MeS-ADP binding to platelets. How it is done: 1. The Ability of Candidate Molecules to Inhibit the Binding of [3H]2-MeS-ADP to the P2Y12 Receptor on Platelets was Determined Using a Radioligand Binding Assay
Utilizing this assay the potency of inhibition of such compounds with respect to [^3H]2-MeS-ADP binding to whole platelets is determined. Under the conditions described in II (3) below, the binding of [^3H]2-MeS-ADP is solely due to the interaction of this ligand with the P2Y12 receptor, in that all the specific binding measured in this assay is compatable with a P2Y12 antagonist (i.e., the specific binding is reduced to background levels by competition with an excess of P2Y12 antagonist, with no competition of binding when a P2Y1 antagonist is pre-incubated with the platelet preparation). […]
A platelet ADP receptor binding assay (ARB) using the tritiated potent agonist ligand [^3H]2-MeS-ADP (Jantzen, H. M. et al. (1999) Thromb. Hemost. 81:111-117) has been adapted to the 96-well microtiter format. […] Total binding is determined in the absence of test compounds. […] The platelet-bound radioactivity on the filtermats is determined in a scintillation counter (Microbeta 1450, Wallac Inc., Gaithersburg, Md.). Specific binding is determined by subtraction of non-specific binding from total binding, and specific binding in the presence of test compounds is expressed as % of specific binding in the absence of test compound dilutions. […]

Data set [2] deals with ADP-induced human platelet aggregation. Kind of data set: inhibition of ADP-mediated platelet aggregation in platelet-rich plasma (PRP assay). The class given is cell-based. The procedure: The effect of testing the compound according to the invention on ADP-induced human platelet aggregation was assessed in a 96-well microtiter assay (see generally the procedures in Jantzen, H. M. et al. (1999) Thromb. Hemost. 81:111′-117) or standard cuvette light transmittance aggregometry using either human platelet-rich plasma (PRP) or human washed platelets.
For preparation of human platelet-rich plasma for aggregation assays, human venous blood was collected from healthy, drug-free volunteers into 0.38% sodium citrate (0.013 M, pH 7.0 final). Platelet-rich plasma (PRP) is prepared by centrifugation of whole blood at 160×g for 20 minutes at room temperature. […]
For cuvette light transmittance aggregation assays, serial dilutions (1:3) of test compounds were prepared in 100% DMSO in a 96 well V-bottom plate (final DMSO concentration in the cuvette was 0.6%). […] The aggregation reaction is recorded for ˜5 mins, and maximum extent of aggregation is determined by the difference in extent of aggregation at baseline, compared to the maximum aggregation that occurs during the five minute period of the assay. Inhibition of aggregation was calculated as the maximum aggregation observed in the presence of inhibitor, compared to that in the absence of inhibitor. […]

Data set [3] in a line: gravimetric vapour sorption (GVS). The class given is physicochemical. How it is done: Sorption isotherms were obtained using a Hiden IGASorp moisture sorption analyser, controlled by CFRSorp software. The sample temperature was maintained at 25° C. by a Huber re-circulating water bath. The humidity was controlled by mixing streams of dry and wet nitrogen, with a total flow rate of 250 ml.min^−1. […] (typical room conditions). A moisture sorption isotherm was performed as outlined below (2 scans giving 1 complete cycle). […] The software uses a least squares minimisation procedure together with a model of the mass relaxation, to predict an asymptotic value. […] The minimum equilibration time was set to 1 hour and the maximum to 4 hours. The sample was recovered after completion of the isotherm and re-analysed by XRPD.

Data set [4] in a line: solid form stability on storage at elevated temperature/humidity, by XRPD. The data set is classed as physicochemical. The conditions noted are these: 75% RH/40° C. for up to 6 months. How it is done: To 20 mg of [4-(6-fluoro-7-methylamino-2,4-dioxo-1,4-dihydro-2H-quinazolin-3-yl)-phenyl]-5-chloro-thiophen-2-yl-sulfonylurea in 3 mL of the various solvents, was added 1.1 eq. of the base in 1 mL solvent. The mixture was shaken for 2 hours and the solutions were left to evaporate down to half their volume to try to precipitate out the salt. […] Oils/emulsions and opaque liquids were left to maturate at 50° C./ambient in an 8 hour cycles for several weeks. […] Solid samples (crystalline and amorphous) were then filtered, dried and then analyzed to judge their purity, crystallinity and stability. Solids were analysed by ^1H NMR to confirm salt formation and analyzed by ion chromatography and TGA to obtain the stoichiometry of the salt.

Data set [5] can be described thus: polymorphism experiments, form B slurried in solvents. The data set is classed as physicochemical. The following applies: ca. 50 mg in ten volumes, ambient, two hours. An excerpt: The propensity of [4-(6-fluoro-7-methylamino-2,4-dioxo-1,4-dihydro-2H-quinazolin-3-yl)-phenyl]-5-chloro-thiophen-2-yl-sulfonylurea potassium salt form B to form polymorphs was studied. Form B (a hemi-hydrate) was slurried in a range of solvents (neat and mixtures). The solvents were chosen based on their pharmaceutical acceptability and also a range of functional groups and polarities such as alcohols, ethers and esters. To encourage hydrate formation, aqueous mixtures were also chosen. The solvents used are detailed in Table 7.
Approximately 50 mg of [4-(6-fluoro-7-methylamino-2,4-dioxo-1,4-dihydro-2H-quinazolin-3-yl)-phenyl]-5-chloro-thiophen-2-yl-sulfonylurea potassium salt, form B was suspended in ten volumes of the solvents detailed in table 7 and stirred at ambient for two hours. […] The suspensions were filtered under vacuum and analysed by XRPD. Most of the solids remained as form B, with a 1:1 acetone/water mixture leading to a subtle change in solid form. The 1:1 tetrahydrofuran/water mixture generated a mixture of that subtly different form and form B.
To all the form B samples a further aliquot of five volumes of appropriate solvent was added and the suspensions were slurried at 50° C. for 4 hours then cooled to ambient for 4 hours. This cycle was repeated for a total of 24 hours, after which time the suspensions were filtered under vacuum and analysed by XRPD.

Data set [6] can be described thus: solid form stability of API dispersed in aqueous vehicle. The class given is physicochemical. The following applies: dry ground API dispersed into aqueous 0.1M phosphate buffer. An excerpt: It was observed that after grinding the API with the diluent of Tox formulation, i.e., 0.5% methylcellulose and 0.1M phosphate sodium buffer at pH7.4, the drug particles became very dense and quickly precipitated during transfer and dosing. […] In addition, if only dry grinding is used to reduce the particle size of the API first and subsequently, the API is quickly dispersed into aqueous 0.1M phosphate buffer without applying significant mechanical stress, the solid form of the API can be maintained in form B for at least 6 hours.

Data set [7] is described as follows: accelerated stability test, chemical purity. The data set is classed as physicochemical. The conditions noted are these: one week, 40° C., 75% RH. The procedure:
Purity analysis was performed on an Agilent HP1100 system equipped with a diode array detector and using ChemStation software v9.

Bounds are passed on as bounds.

T1 sequence (Q9H244 whole entry): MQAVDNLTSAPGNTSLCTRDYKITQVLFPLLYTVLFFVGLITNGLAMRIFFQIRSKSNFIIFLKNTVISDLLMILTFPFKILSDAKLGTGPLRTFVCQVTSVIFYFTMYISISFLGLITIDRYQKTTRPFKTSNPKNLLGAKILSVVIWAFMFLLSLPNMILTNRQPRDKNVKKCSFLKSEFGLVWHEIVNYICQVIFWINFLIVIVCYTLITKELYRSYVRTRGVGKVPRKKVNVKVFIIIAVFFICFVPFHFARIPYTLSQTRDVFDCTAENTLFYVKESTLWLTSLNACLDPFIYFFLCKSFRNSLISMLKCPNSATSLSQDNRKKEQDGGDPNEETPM

Consider `CNc1cc2[nH]c(=O)n(-c3ccc(NC(=O)NS(=O)(=O)c4ccc(Cl)s4)cc3)c(=O)c2cc1F` [Example 2, [4-(6-fluoro-7-methylamino-2,4-dioxo-1,4-dihydro-2H-quinazolin-3-yl)-phenyl]-5-chloro-thiophen-2-yl-sulfonylurea], for which the concentration for half-maximal inhibition (IC50) in data set [1] is < 0.05 µM; in data set [2], < 10 µM.
As for “[4-(6-fluoro-7-methylamino-2,4-dioxo-1,4-dihydro-2H-quinazolin-3-yl)-phenyl]-5-chloro-thiophen-2-yl-sulfonylurea potassium salt hemi hydrate [Form B of the potassium salt]”, in data set [3], the “XRPD after the GVS experiment” value was “no phase change” and the hygroscopicity result is given as “non-hygroscopic”. The “change in solid state” value in data set [4] is “no change in solid state”. The “solvents that dissolved the salt” value in data set [5] is recorded as 2-methoxyethanol was the only solvent that dissolved the potassium salt. The “time the solid form is maintained in form B” value in data set [6] was “at least 6 hours”.
With `CNc1cc2[nH]c(=O)n(-c3ccc(NC(=O)NS(=O)(=O)c4ccc(Cl)s4)cc3)c(=O)c2cc1Cl` [Example 3, [4-(6-chloro-7-methylamino-2,4-dioxo-1,4-dihydro-2H-quinazolin-3-yl)-phenyl]-5-chloro-thiophen-2-1-sulfonylurea], the IC50 in data set [1] was > 0.5 µM; in data set [2], > 30 µM.
Regarding `CNc1cc2[nH]c(=O)n(-c3ccc(NC(=O)NS(=O)(=O)c4ccc(Cl)s4)cc3)c(=O)c2cc1F.[K]` [Form A of the potassium salt, [4-(6-fluoro-7-methylamino-2,4-dioxo-1,4-dihydro-2H-quinazolin-3-yl)-phenyl]-5-chloro-thiophen-2-yl-sulfonylurea potassium salt 2.5 hydrate], the hygroscopicity entry in data set [3] is “less hygroscopic than the amorphous form of the sodium salt”. Also, in data set [3] (25° C.), the “RH range in which the 2.5 hydrate is stable” value was 20-90 % RH; the dehydration entry is “dehydrates between 20 and 0% RH”. In addition, the “change in the chemical purity” value in data set [7] is recorded as “No change”.

For the origin of these results see patent US20090156620A1, “[4-(6-FLUORO-7-METHYLAMINO-2,4-DIOXO-1,4-DIHYDRO-2H-QUINAZOLIN-3-YL)-PHENYL]-5-CHLORO-THIOPHEN-2-YL-SULFONYLUREA SALTS, FORMS AND METHODS RELATED THERETO” (Portola Pharmaceuticals, Inc., priority 2007, published 2009).
